1 molecule from patent US12497396B2, “Nitrogen-containing heterocyclic derivatives, method therefor and application therefor as inhibitors of KRAS G12C for the treatment of cancers” (SHANGHAI HANSOH BIOMEDICAL CO., LTD., priority 2019, dated 2025) can be followed below.

The structures appear in SMILES notation.

The subject of the assay is human lung cancer NCI-H358 cell xenograft. The experiment in a line: In vivo pharmacodynamics on human lung cancer NCI-H358 cell xenograft tumor model. More on the design: species or system BALB/c nude mice. On the procedure: • BALB/c nude mice, 6-8 weeks old, female, purchased from Shanghai Xipuer-Bikai Experimental Animal Co., Ltd. 6.3.2 Cell Culture and Cell Suspension Preparation • 1) MiaPaca-2 cells were taken out from the cell bank and resuscitated with DMEM medium (DMEM+10% FBS), the resuscitated cells were placed in a cell culture flask (labeled with cell type, date, name of cultured person, etc.) and cultured in a CO2 incubator (incubator temperature was 37° C., CO2 concentration was 5%) (the method of resuscitating NCI-H358 cells was the same as MiaPaca-2 cells in test embodiment 5, and the culture medium was changed to RPMI-1640 medium). • 2) Passage was conducted every three to five days, and the cells was continued to be cultured in CO2 incubator after passage. The process was repeated until the cell count meets the in vivo pharmacodynamic requirements. • 3) MiaPaca-2 cells were collected and counted by automatic cell counter, according to the counting results, the cells were re-suspended with PBS and Matrigel (ratio was 1:1) to make cell suspension (cell density was 5×10^7/mL), then placed in a ice box for use (NCI-H358 cells were re-suspended with PBS without adding Matrigel, cell density was 1×10^8/mL). 6.3.3 Sample Preparation: • 1) Solvent: solvent (0.5% CMC-Na+1% Tween 80), storage condition: 4° C.
0.5 g of CMC-Na was weighted, dissolved in ddH2O, then 1.0 mL of Tween 80 was added and the mixture was stirred to mix well, and the volume was finally set to 100 mL. • 2) Compound to be tested (10 mg/kg) was prepared:
8.42 mg of AMG510 compound was weighted, 8.260 mL of solvent was added, a uniform solution was obtained by ultrasound, vortexing and stirring.
7.81 mg of embodiment compound 165-1 was weighted, 7.654 mL of solvent was added, a uniform solution was obtained by ultrasound, vortexing and stirring.
• 1) Before inoculation, nude mice were labeled with disposable universal ear tags of rats and mice; • 2) when inoculating, the cell suspension was mixed well, 0.1-1 mL cell suspension was extracted with a 1 mL syringe, bubbles were removed, and then the syringe was put on an ice bag for later use; • 3) the nude mice was held with left hand, the right back of nude mice near the right shoulder (inoculation site) was disinfected with 75% alcohol, and inoculation was started after 30 seconds; • 4) the experimental nude mice were inoculated in turn (each mouse was inoculated with 0.1 mL of cell suspension); 6.3.4 Tumor-Bearing Mouse were Measured, Grouped, and Administered: • 1) According to the tumor growth, the tumor was measured on the 18th day after inoculation, and the tumor size was calculated. tumor volume (mm^3)=length (mm)×width (mm)×width (mm)/2 Tumor volume calculation: • 2) The tumor-bearing mice were grouped according to their body weight and tumor size using a randomized grouping method. • 3) According to the grouping results, the administration of the test drug was started (administration method: oral administration; administration dose: 10 mg/kg; administration volume: 10 mL/kg; administration frequency: once a day; administration period: 21 days; solvents: 0.5% CMC/1% Tween 80). • 4) The tumor was measured and weighed twice a week after the test drug was started to be given. • 5) After the experiment, all animals were euthanized. • 6) Data was processed with software such as Excel. […]
(In general: A xenograft is tissue or cells of one species grown in another, often human tumour cells in immunodeficient mice.)

Take `C=CC(=O)N1C[C@H](C)N(c2nc(=O)n(-c3c(SC)ccnc3C(C)C)c3nc(-c4c(N)ccc(Cl)c4F)c(Cl)cc23)C[C@H]1C` (single isomer, unassigned) [Embodiment 165-1]: where the note is “Day 15, 10 mpk oral once a day”, the “TGI (%) Day 15” value turned out to be 67.41%; the “tumor volume (mm^3, Mean ± SD) Day 15” value is given as 267 ± 155 mm^3; the “ΔT/ΔC(%) Day 15” value was found to be 32.59%. Also, under “baseline Day 0, 10 mpk oral once a day”, the “tumor volume (mm^3, Mean ± SD) Day 0” value was 203 ± 74 mm^3.
